For 26 compounds, DC50 results are on record in patent US20240383908A1, “SYNTHESIS AND APPLICATION OF PHOSPHATASE DEGRADER” (HINOVA PHARMACEUTICALS INC., priority 2021, published 2024).

Structures are written as SMILES.

What is called DC50 is the concentration at which degradation of the target reaches its halfway point.

Assay [1] has as its target T1, SHP2 protein (Homo sapiens, UniProt Q06124).
T1 sequence (Q06124 1-593): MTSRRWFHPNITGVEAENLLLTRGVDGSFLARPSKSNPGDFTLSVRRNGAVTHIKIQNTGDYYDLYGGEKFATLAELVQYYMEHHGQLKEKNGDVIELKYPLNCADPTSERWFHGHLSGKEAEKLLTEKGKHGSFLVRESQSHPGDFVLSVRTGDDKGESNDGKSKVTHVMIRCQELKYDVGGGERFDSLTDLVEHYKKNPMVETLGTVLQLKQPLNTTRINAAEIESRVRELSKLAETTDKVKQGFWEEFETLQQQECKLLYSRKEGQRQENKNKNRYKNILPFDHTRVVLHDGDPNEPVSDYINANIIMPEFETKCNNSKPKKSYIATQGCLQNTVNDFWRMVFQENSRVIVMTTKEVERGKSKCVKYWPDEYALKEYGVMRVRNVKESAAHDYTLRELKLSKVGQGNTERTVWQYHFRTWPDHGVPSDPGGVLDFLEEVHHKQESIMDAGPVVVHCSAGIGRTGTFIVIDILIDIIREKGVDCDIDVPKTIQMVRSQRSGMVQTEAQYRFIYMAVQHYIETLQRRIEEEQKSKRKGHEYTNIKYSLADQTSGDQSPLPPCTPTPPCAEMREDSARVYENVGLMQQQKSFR
Put plainly: Degradation activity on SHP2 protein in NCI-H358 cells (Western blot, DC50). Type of assay: cell-based. Further details: endogenous in cells. To be noted: read-out: Degradation activity for differenct cell lines NCI-H358 (DC50). The protocol:
(1) MV-411 cells were cultured in the cell culture medium, and then well-growing cells were selected and inoculated in a 12-well plate, with 1 mL/well and 1×10^6 cells/well. The plate was incubated overnight in a 5% CO2 cell incubator at 37° C.
(2) 10 mM storage solution of each drug was prepared using dimethylsulfoxide (DMSO). The stock solution was diluted gradually with DMSO before use, and then 1 μL of the compound solution was added to the cell culture well (to ensure that the DMSO concentration in the culture system was […]), so that the final drug concentration is 100 nM, 10 nM, 3 nM, 1 nM, 0.3 nM, and 0.1 nM. Two wells were set for each concentration. The plate was gently shaken and mixed. Additionally, negative control wells (containing an equal amount of DMSO) and positive control wells were included.
(3) After 24 hours of cultivation, the cells were lysed using RIPA cell lysate, and the proteins were extracted. The protein concentration was measured using a BCA assay kit. 5× concentrated protein buffer was loaded, heated at 100° C. for 5 min, and then the sample was stored at −20° C.
(4) For each well, 30 μg of protein was loaded to polyacrylamide gel for electrophoresis.
(5) The protein was transferred from polyacrylamide gel to PVDF membrane, and sealed at room temperature with 5% skimmed milk for 1 h, which was then incubated with the primary antibodies (Anti-SHP2 rabbit mAb and Anti-GAPDH rabbit mAb) at 4° C. overnight. The membrane was washed three times with TBST solution, 10 minutes for each time. After that, the membrane was incubated with the secondary antibodies (horseradish peroxidase labeled goat anti-rabbit IgG) at room temperature for 2 h, and then washed three times with TBST solution, 10 minutes for each time, followed by exposure.
(6) The images were analyzed with Image J grayscale, and the degradation ratio of protein bands in the test group was calculated, based on the negative control group (DMSO) (100%).
(7) Using the Dose-response-inhibition equation in the data processing software GraphPad Prism 8, the DC50 value was obtained (which represents the drug concentration corresponding to 50% degradation of the target protein).
Using similar methods and different cell lines, the degradation activity of the compound according to the present invention on SHP2 protein of different cell lines was tested under suitable culture conditions.

Assay [2] has as its target T1, SHP2 protein. Put plainly: Degradation activity on SHP2 protein in MIA Paca-2 cells (Western blot, DC50). Type of assay: cell-based. Further details: endogenous in cells; host or cells: MIA Paca-2 cells. To be noted: read-out: Degradation activity for differenct cell lines MIA Paca-2 (DC50). An outline of the steps:
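DC50 is the concentration degrading 50% of SHP2 relative to DMSO control. It was derived by fitting Western blot band densitometry (anti-SHP2, GAPDH reference) from cells exposed 24 h to 0.1–100 nM compound in 0.1% DMSO.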
(In general: A western blot detects proteins with antibodies after separation by electrophoresis.)

In the case of `Cc1ncsc1-c1ccc([C@H](C)NC(=O)[C@@H]2C[C@@H](O)CN2C(=O)[C@@H](NC(=O)c2cnc(N3CCN(CCCCC(=O)Nc4cccc(Sc5cnc(N6CCC(C)(N)CC6)cn5)c4)CC3)nc2)C(C)(C)C)cc1` [Compound 221], the DC50 at SHP2 protein [1] and at SHP2 protein [2] was below 100 nM throughout.

With `CC1(N)CCN(c2cnc(Sc3cccc(NC(=O)CCCCCCCCN4CC=C(c5ccc(C(=O)NCc6ccc7c(c6)CN(C6CCC(=O)NC6=O)C7=O)nc5)C(C)(C)C4)c3)cn2)CC1` (stereo not shown) [Compound 222], the DC50 on SHP2 protein [1] and at SHP2 protein [2] was below 100 nM each time.

Take `CCC1(N)CCN(c2cnc(Sc3cccc(NC(=O)CCCCCCCCN4CCC(c5ccc(C(=O)NCc6ccc7c(c6)CN(C6CCC(=O)NC6=O)C7=O)nn5)CC4)c3)cn2)CC1` (stereo not shown) [Compound 223]: the DC50 at SHP2 protein [1] and on SHP2 protein [2] was below 100 nM throughout.

Consider `CC1(N)C2CCC1CN(c1cnc(Sc3cccc(NC(=O)CCCCCCCCN4CCC(c5ccc(C(=O)NCc6ccc7c(c6)CN(C6CCC(=O)NC6=O)C7=O)nn5)CC4)c3)cn1)C2` (stereo not shown) [Compound 224], for which the DC50 on SHP2 protein [1] and on SHP2 protein [2] was below 100 nM throughout.

As for `CCC1(N)CCN(c2cnc(Sc3cccc(NC(=O)CCCCCCCCN4CCN(c5ccc(C(=O)NCc6ccc7c(c6)CN(C6CCC(=O)NC6=O)C7=O)nn5)CC4C(F)(F)F)c3)cn2)CC1` (stereo not shown) [Compound 226], the DC50 at SHP2 protein [1] and on SHP2 protein [2] was below 100 nM each time.

As for `CC1(N)CCN(c2cnc(Sc3cccc(NC(=O)CCCCCCCCN4CCN(c5ccc(C(=O)NCc6ccc7c(c6)CN(C6CCC(=O)NC6=O)C7=O)nc5Cl)CC4C(F)(F)F)c3)cn2)CC1` (stereo not shown) [Compound 227], the DC50 at SHP2 protein [1] and at SHP2 protein [2] was below 100 nM in each case.

Turning to `CC1CC(c2ccc(C(=O)NCc3ccc4c(c3)CN(C3CCC(=O)NC3=O)C4=O)nn2)=CCN1CCCCCCCCC(=O)Nc1cccc(Sc2cnc(N3CCC(C)(N)CC3)cn2)c1` (stereo not shown) [Compound 228], the DC50 at SHP2 protein [1] and at SHP2 protein [2] was below 100 nM in each case.

Regarding `CC1(N)CCN(c2cnc(Sc3cccc(NC(=O)CCCCCCCCN4CCN(c5ccc(C(=O)NCc6ccc7c(c6)CN(C6CCC(=O)NC6=O)C7=O)cc5)CC4)c3)cn2)CC1` (stereo not shown) [Compound 229], the DC50 at SHP2 protein [1] and at SHP2 protein [2] was below 100 nM in each case.

`Cc1ncsc1-c1ccc([C@H](C)NC(=O)[C@@H]2C[C@@H](O)CN2C(=O)[C@@H](NC(=O)c2cnc(N3CCN(CCCC(=O)Nc4cccc(Sc5cnc(N6CCC7(CC6)CO[C@@H](C)[C@H]7N)cn5)c4)CC3)nc2)C(C)(C)C)cc1` [Compound 230]: the DC50 on SHP2 protein [1] and at SHP2 protein [2] was below 100 nM throughout.

As for `Cc1ncsc1-c1ccc([C@H](C)NC(=O)[C@@H]2C[C@@H](O)CN2C(=O)[C@@H](NC(=O)c2cnc(N3CCN(CC(=O)Nc4cccc(Sc5cnc(N6CCC(C)(N)CC6)cn5)c4)CC3)nc2)C(C)(C)C)cc1` [Compound 231], the DC50 at SHP2 protein [1] and at SHP2 protein [2] was above 1000 nM in each case.

Take `CC1(N)CCN(c2cnc(Sc3cccc(NC(=O)CCCCCCCCN4C[C@@H]5C[C@H]4CN5c4ccc(C(=O)NCc5ccc6c(c5)CN(C5CCC(=O)NC5=O)C6=O)nn4)c3)cn2)CC1` (stereo partly shown) [Compound 237]: the DC50 at SHP2 protein [1] and at SHP2 protein [2] was below 100 nM in each case.

With `CC1(N)CCN(c2cnc(Sc3cccc(NC(=O)CCCCCCCCN4C[C@H]5C[C@@H]4CN5c4ccc(C(=O)NCc5ccc6c(c5)CN(C5CCC(=O)NC5=O)C6=O)nn4)c3)cn2)CC1` (stereo partly shown) [Compound 238], the DC50 at SHP2 protein [1] and on SHP2 protein [2] was below 100 nM in each case.

Turning to `C[C@@H]1CN(CCCCCCCCC(=O)Nc2cccc(Sc3cnc(N4CCC(C)(N)CC4)cn3)c2)CCN1c1ccc(C(=O)NCc2ccc3c(c2)CN(C2CCC(=O)NC2=O)C3=O)nn1` (stereo partly shown) [Compound 239], the DC50 at SHP2 protein [1] and on SHP2 protein [2] was below 100 nM throughout.

For the compound `Cc1ncsc1-c1ccc([C@H](C)NC(=O)[C@@H]2C[C@@H](O)CN2C(=O)[C@@H](NC(=O)c2cnc(N3CCN(CCCCCCC(=O)Nc4cccc(Sc5cnc(N6CCC(C)(N)CC6)cn5)c4)CC3)nc2)C(C)(C)C)cc1` [Compound 241], the DC50 at SHP2 protein [1] and at SHP2 protein [2] was below 100 nM each time.

As to `CC1CN(CCCCCCCCC(=O)Nc2cccc(Sc3cnc(N4CCC(C)(N)CC4)cn3)c2)CC=C1c1ccc(C(=O)NC(C)c2ccc3c(c2)CN(C2CCC(=O)NC2=O)C3=O)nc1` (stereo not shown) [Compound 242], the DC50 on SHP2 protein [1] and on SHP2 protein [2] was below 100 nM each time.

With `CC1CN(CCCCCCCCC(=O)Nc2cccc(Sc3cnc(N4CCC(C)(N)CC4)cn3)c2)CC=C1c1ccc(C(=O)NCc2ccc3c(c2)CN(C2CCC(=O)NC2=O)C3=O)nc1` (stereo not shown) [Compound 243], the 50% degradation concentration (DC50) on SHP2 protein [1] and on SHP2 protein [2] was below 100 nM each time.

Take `CC1(N)CCN(c2cnc(Sc3cccc(NC(=O)CCCCc4ccc(N5CCN(c6ccc(C(=O)NCc7ccc8c(c7)CN(C7CCC(=O)NC7=O)C8=O)nn6)CC5)cc4)c3)cn2)CC1` (stereo not shown) [Compound 244]: the DC50 at SHP2 protein [1] and at SHP2 protein [2] was below 100 nM each time.

On to `CC(CCCCCCCC(=O)Nc1cccc(Sc2cnc(N3CCC(C)(N)CC3)cn2)c1)N1CC=C(c2ccc(C(=O)NCc3ccc4c(c3)CN(C3CCC(=O)NC3=O)C4=O)nc2)C(C)(C)C1` (stereo not shown) [Compound 245], for which the DC50 at SHP2 protein [1] and on SHP2 protein [2] was below 100 nM throughout.

`Cn1nc(C(=O)NCc2ccc3c(c2)CN(C2CCC(=O)NC2=O)C3=O)cc1C1=CCN(CCCCCCCCC(=O)Nc2cccc(Sc3cnc(N4CCC(C)(N)CC4)cn3)c2)CC1` (stereo not shown) [Compound 246]: the DC50 at SHP2 protein [1] and at SHP2 protein [2] was below 100 nM throughout.

`CC1(N)CCN(c2cnc(Sc3cccc(NCc4ccc(CN5CCN(c6ccc(C(=O)NCc7ccc8c(c7)CN(C7CCC(=O)NC7=O)C8=O)nn6)CC5)cc4)c3)cn2)CC1` (stereo not shown) [Compound 247]: the DC50 on SHP2 protein [1] is 100 to 1000 nM; on SHP2 protein [2], above 1000 nM.

Take `CC1(N)CCN(c2cnc(Sc3cccc(NC(=O)CCN4CCN(c5ccc(C(=O)NCc6ccc7c(c6)CN(C6CCC(=O)NC6=O)C7=O)nn5)CC4)c3)cn2)CC1` (stereo not shown) [Compound 248]: the DC50 at SHP2 protein [1] and on SHP2 protein [2] was below 100 nM throughout.

`C[C@H]1CN(c2ccc(C(=O)NCc3ccc4c(c3)CN(C3CCC(=O)NC3=O)C4=O)nn2)CCN1CCCCCCCCC(=O)Nc1cccc(Sc2cnc(N3CCC(C)(N)CC3)cn2)c1` (stereo partly shown) [Compound 249]: the DC50 at SHP2 protein [1] and at SHP2 protein [2] was below 100 nM in each case.

For the compound `C[C@H]1CN(CCCCCCCCC(=O)Nc2cccc(Sc3cnc(N4CCC(C)(N)CC4)cn3)c2)CCN1c1ccc(C(=O)NCc2ccc3c(c2)CN(C2CCC(=O)NC2=O)C3=O)nn1` (stereo partly shown) [Compound 250], the DC50 at SHP2 protein [1] and on SHP2 protein [2] was below 100 nM in each case.

On to `CC1(N)CCN(c2cnc(Sc3cccc(NC(=O)CCCCCCCCN4CCN(c5ccc(C(=O)NCc6ccc7c(c6)CN(C6CCC(=O)NC6=O)C7=O)nn5)C[C@@H]4CO)c3)cn2)CC1` (stereo partly shown) [Compound 251], for which the DC50 at SHP2 protein [1] and at SHP2 protein [2] was below 100 nM throughout.

Regarding `C[C@@H]1CN(c2ccc(C(=O)NCc3ccc4c(c3)CN(C3CCC(=O)NC3=O)C4=O)nn2)CCN1CCCCCCCCC(=O)Nc1cccc(Sc2cnc(N3CCC(C)(N)CC3)cn2)c1` (stereo partly shown) [Compound 252], the DC50 at SHP2 protein [1] and at SHP2 protein [2] was below 100 nM in each case.

For `CC1(N)CCN(c2cnc(Sc3cccc(NC(=O)CCCCN4CCC(N5CCN(c6ccc(C(=O)NCc7ccc8c(c7)CN(C7CCC(=O)NC7=O)C8=O)nn6)CC5)C4)c3)cn2)CC1` (stereo not shown) [Compound 266], the figures for the 50% degradation concentration (DC50) on SHP2 protein [1] and at SHP2 protein [2] were 100 to 1000 nM and above 1000 nM, respectively.
